# Columns and labels:
# [1] = tested on: plasma membrane H+-ATPases; conditions: vanadate in its plus 5 valence state; cited from earlier work
# [2] = molecular target: T1, plasma membrane H+-ATPase (Arabidopsis thaliana, UniProt P19456); assay: Inhibition of H+ ATPase ATP hydrolytic activity by platin and holmium ions (Pi production); type: biochemical; conditions: 20 mM Mops pH 6.5, 50 mM KCl, 8 mM MgCl2, 3 mM ATP; various concentrations; FIG. 12; numbers only in figure
# T1 sequence (P19456 1-948): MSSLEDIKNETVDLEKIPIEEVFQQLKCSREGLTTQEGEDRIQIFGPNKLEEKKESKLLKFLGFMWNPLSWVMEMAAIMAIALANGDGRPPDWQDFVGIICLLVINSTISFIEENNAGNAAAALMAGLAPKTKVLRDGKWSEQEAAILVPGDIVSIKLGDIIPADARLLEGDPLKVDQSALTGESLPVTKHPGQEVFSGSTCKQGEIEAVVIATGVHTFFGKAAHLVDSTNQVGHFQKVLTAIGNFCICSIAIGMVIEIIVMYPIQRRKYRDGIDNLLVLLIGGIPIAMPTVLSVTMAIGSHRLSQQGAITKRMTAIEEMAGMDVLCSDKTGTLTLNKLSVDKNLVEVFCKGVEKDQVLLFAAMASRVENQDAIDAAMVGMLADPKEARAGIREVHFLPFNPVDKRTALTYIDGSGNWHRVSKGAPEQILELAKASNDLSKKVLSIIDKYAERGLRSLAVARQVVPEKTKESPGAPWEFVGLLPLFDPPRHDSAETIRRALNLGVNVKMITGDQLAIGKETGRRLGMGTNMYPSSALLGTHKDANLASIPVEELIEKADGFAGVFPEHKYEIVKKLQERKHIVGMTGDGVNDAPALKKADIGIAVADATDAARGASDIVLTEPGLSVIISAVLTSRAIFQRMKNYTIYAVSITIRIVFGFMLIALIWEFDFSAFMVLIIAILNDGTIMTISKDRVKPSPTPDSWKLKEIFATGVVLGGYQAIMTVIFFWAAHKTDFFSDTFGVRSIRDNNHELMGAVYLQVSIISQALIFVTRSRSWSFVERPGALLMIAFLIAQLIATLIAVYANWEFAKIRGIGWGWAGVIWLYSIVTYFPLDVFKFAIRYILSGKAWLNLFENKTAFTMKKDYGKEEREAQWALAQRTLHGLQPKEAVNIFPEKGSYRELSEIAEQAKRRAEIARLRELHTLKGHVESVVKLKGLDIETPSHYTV
# Method: (§1) Assay conditions are 20 mM Mops, pH: 6.5, 50 mM KCl, 8 mM MgCl2 and 3 mM ATP. Production of Pi was measured by standard […] tests. The results are shown in FIG. 12A and the activity is given as the percentage of the ATP hydrolytic activity in the absence of various concentrations of Pt (±StDev).
# as §1, with “12B” for “12A”, “Ho” for “Pt”
# [3] = molecular target: Sarcoplasmic Endoplasmic Reticulum Ca2+-ATPase (SERCA); conditions: blocking SERCA; cited from earlier work
smiles,measurement,setting,value
[O]=[V]([O-])([O-])[O-] [Vanadate],concentration at which the pumps are inhibited,[1],μM range
[Ho+3] [Ho],ATP hydrolytic activity of plasma membrane H+-ATPase,[2],inhibits
C/C=C(/C)C(=O)O[C@H]1C(C)=C2[C@H]([C@@H]1OC(=O)CCCCCCC)[C@@](C)(OC(C)=O)C[C@H](OC(=O)CCC)[C@@]1(O)[C@H]2OC(=O)[C@@]1(C)O [thapsigargin],Kd,[3],sub-nanomolar range

# Source: patent US8577624B2, “Crystal structure of a plasma membrane proton pump” (Aarhus Universitet, priority 2007, dated 2013)
